Literature values as cited in patent US7771744B2, “Bazedoxifene acetate formulations” (Wyeth LLC, priority 2005, dated 2010).

Experiments:
[1] = tested on: MCF-7 cell line (human breast cancer cell line)
uterine response = details: preclinical models of uterine stimulation
[2] = tested on: bone loss and cholesterol; details: ovariectomized rat model of osteopenia

Cc1c(-c2ccc(O)cc2)n(Cc2ccc(OCCN3CCCCCC3)cc2)c2ccc(O)cc12 [bazedoxifene acetate, 1-[4-(2-azepan-1-yl-ethoxy)-benzyl]-2-(4-hydroxy-phenyl)-3-methyl-1H-indol-5-ol acetic acid]
estrogen antagonist behaviour [1]: behaves as an estrogen antagonist
stimulation of uterine response (uterine response): little or no stimulation of uterine response
effect on bone loss and cholesterol [2]: estrogen agonist-like effect in preventing bone loss and reducing cholesterol

Cc1c(-c2ccc(O)cc2)n(Cc2ccc(OCCN3CCCCCC3)cc2)c2ccc(O)cc12 [Form A, 1-[4-(2-azepan-1-yl-ethoxy)-benzyl]-2-(4-hydroxy-phenyl)-3-methyl-1H-indol-5-ol acetic acid]
solubility in aqueous and organic solvent systems compared with form B: higher solubility
